What was measured:
[1] = tested on: mixed primary neuronal culture; assay: LDH release assay in mixed primary neuronal culture; assay type: cell-based, mouse; settings: 1 mM BMAA, 24 h
Method: Mouse hippocampal neuronal cultures were prepared from d 18 embryos as previously described (1). Briefly, C57BL/6 pregnant female mice from Charles River Laboratories were killed by cervical dislocation. All studies were performed in accordance with the recommendations in the Guide for the Care and Use of Laboratory Animals of the National Institutes of Health (2). The protocol was approved by Institutional Animal Care and Use Committee of the New York Institute for Basic Research in Developmental Disabilities. All surgeries were performed under anesthesia, and all efforts were made to minimize suffering. Embryos were removed and placed in cold Hibernate A (BrainBits, LLC), and all the following steps were performed in ice-cold Hibernate A, under a stereoscopic (dissection) microscope placed in a laminar flow hood. Fetal brains were removed carefully, and forebrains were separated. The hippocampus, including the cortex surrounding the area of the hippocampus, was dissected and cut into small pieces using microsurgical scissors. […]

PP2A = assay: i.c.v. infusion of BMAA in neonatal rats: PP2Ac Tyr307 phosphorylation and PP2A activity; assay type: in vivo, rat; settings: i.c.v. BMAA 1.3 μmol
Method: Wistar rats were bred and maintained under standard environmental conditions (12-h light/dark cycles, 22° C.) and were allowed free access to food and water. The animal experiments were carried out in strict compliance with protocols approved by the Animal Welfare Committee of New York State Institute for Basic Research in Developmental Disabilities. On postnatal d 2 (PND2), pups were individually cryo-anesthetized on ice, and 2 μL of 1.3 μmol BMAA in PBS was injected into lateral ventricle using a 10-μL Hamilton syringe (Hamilton Syringe Co.). Control animals were injected with PBS in an identical manner. After infusion of BMAA, rats were killed within 1, 24, 48, 72, or 96 h, and the brains were used for Western blots and PP2A activity assays.
PP2A activity was assayed with homogenate of rat brain slices using the phosphatase ELISA described previously (5). Briefly, 96-well plates were precoated with a 17-aa phosphopeptide corresponding to tau amino acids 194-207 in which […] was replaced with phosphoserine and to which KKK were added at the C terminus (coating buffer, 35 mM NaHCO3). After overnight blocking with a protein-free blocking solution (Pierce), the enzymatic reaction was performed by adding 2 μg of cell lysate protein in 60 μL of reaction buffer [50 mM TrisHCl (pH 7.0), 2 mM MnCl2, 0.1 mg/mL BSA, 20 mM (β-mercaptoethanol] at 30° C. for 30 min (in the presence or absence of 15 nM of okadaic acid) in a moist chamber. The reaction was stopped by adding 150 μL of Pierce blocking solution containing 50 mM NaF, followed by an overnight incubation with monoclonal antibody Tau-1, which recognizes tau unphosphorylated at Ser^198, Ser^199, and Ser^202. HRP-conjugated secondary antibody treatment was for 60 min at room temperature. Finally 75 μL of 3,3′,5,5′-Tetramethylbenzidine substrate reagent (Sigma) was added, and the colorimetric development was measured using a microtiter plate reader at a wavelength of 650 nm.
Protein was fractionated by 10% SDS/PAGE, transferred to PVDF membrane, and then blocked with 5% skim milk for 1 h at room temperature. […] The protein bands were detected with the enhanced chemiluminescence reagents (Thermo Scientific). Band intensity was measured by Multi-Gauge V3 software (Fuji Photo Film).

mixed cortical cultures = settings: injury induced by amyloid-β, 1-methyl-4-phenylpyridinium or methylmercury; cited from earlier work
tau = assay: Tau phosphorylation (Western blots, immunofluorescence) in mouse hippocampal primary neurons; assay type: cell-based
Method: Mouse hippocampal neuronal cultures were prepared from d 18 embryos as previously described (1). Briefly, C57BL/6 pregnant female mice from Charles River Laboratories were killed by cervical dislocation. All studies were performed in accordance with the recommendations in the Guide for the Care and Use of Laboratory Animals of the National Institutes of Health (2). The protocol was approved by Institutional Animal Care and Use Committee of the New York Institute for Basic Research in Developmental Disabilities. All surgeries were performed under anesthesia, and all efforts were made to minimize suffering. Embryos were removed and placed in cold Hibernate A (BrainBits, LLC), and all the following steps were performed in ice-cold Hibernate A, under a stereoscopic (dissection) microscope placed in a laminar flow hood. Fetal brains were removed carefully, and forebrains were separated. The hippocampus, including the cortex surrounding the area of the hippocampus, was dissected and cut into small pieces using microsurgical scissors. The cut tissue was transferred with number 5 forceps to 15-mL tubes containing 0.1% trypsin in Versene (Invitrogen Life Technologies) and was incubated for 15 min at 37° C. followed by inactivation with 10% (vol/vol) FBS in Neurobasal complete medium (Neurobasal Medium supplemented with 2×B-27, 0.30% glutamine, 10% FBS, and penicillin/streptomycin, 0.1 mg/mL and 0.1 U/mL respectively). After 3 d, the cells were grown with Neurobasal medium supplemented with only 2×B-27. This procedure typically yields cultures that contain 70-75% neurons and […] supporting cells (3). The cultures were maintained at 37° C. in a humidified atmosphere containing 5% CO2 for 8 or 9 d before experimentation. Every 72 h, the medium was replaced with fresh medium. All medium components were purchased from Invitrogen. The neuronal transfection was performed using Lipofectamine LTX and Plus reagent at 5 d in vitro according to the manufacturer's instructions (Invitrogen). The cells were processed for immunofluorescent staining 3 d after transfection.
Protein was fractionated by 10% SDS/PAGE, transferred to PVDF membrane, and then blocked with 5% skim milk for 1 h at room temperature. The membrane was probed with anti-IPP2A (5G6, 1:1, 500) (7), anti-I2P2A (10E7, 1:1, 600) (7), anti-tau ˜92e; 1:5,000) (8), anti-tau (R134d; 1:5 000) (9), anti-tau pSer^262/^356 (12E8; 1:500) (10, anti-tau pSer^199, anti-tau pThr^205, anti-tau pThr^212, and pSer^396 (1:1,000) (Biosource), anti-GAPDH (1:2,000) (Santa Cruz Biotechnology), anti-PP2Ac (1:10 000) (BD Transduction Lab), anti pY^307-PP2A and anti-DML^309-PP2A (1:1,000) (Millipore), anti-GSK-3(α/β), anti-pS^9-GSK-3 β, anti-ERK1/2, anti-pT^202/Y^204-ERK1/2, anti-MEK1/2, anti-p9^17/221-MEK1/2, anti-CAMKII, anti-pT^286-CAMKII, anti-p70 S6 kinase, anti-pT^389-p70 S6 kinase, anti-SAPK/JNK, and anti-pT^183/Y^185-SAPK/JNK (1:1,000) (Cell Signaling Technology). The membrane then was incubated with HRP-conjugated secondary antibody (Jackson ImmunoResearch). The protein bands were detected with the enhanced chemiluminescence reagents (Thermo Scientific). Band intensity was measured by Multi-Gauge V3 software (Fuji Photo Film).
Primary hippocampal neuronal cultures grown on four-chamber glass slides were fixed in cold 4% (wt/vol) paraformaldehyde for 15 min and permeabilized in 0.1% Triton X-100 for 15 min followed by incubation in 5% goat serum to block the nonspecific staining for 1 h. The cells then were probed with 12E8 (1:200) overnight at 4° C. Alexa-488-conjugated anti-mouse secondary antibody (1:500) (Jackson Laboratory) was used for fluorescent labeling. The cells on slides were rinsed with PBS, mounted with Fluorogel (Electron Microscopy Sciences) and examined under laser confocal microscope (Nikon Eclipse 90i). […]

[2] = BMAA 1 mM vs controls, Western blots, P<0.01
[3] = BMAA 1 mM vs controls, Western blots, P<0.05

CNC[C@H](N)C(=O)O [BMAA, β-N-methylamino-L-alanine]
cell death (LDH release) [1]: caused cell death
PP2A activity in rat brain (PP2A): decreased
time at which the decrease in PP2A activity was most significant (PP2A): 48 h
time by which pTyr307-PP2Ac decreased to a normal level (PP2A): 72-96 h
level of phosphorylation of PP2Ac at Tyr307 in rat brains (PP2A; for 24-48 h): increased markedly
BMAA concentration potentiating neuronal injury (mixed cortical cultures): 10 µM
hyperphosphorylation of tau at Ser396 (tau; BMAA 1 mM vs controls, Western blots): not at Ser^396
hyperphosphorylation of tau at Ser262/356 (12E8 site) (tau; [2]): significantly increased
hyperphosphorylation of tau at Thr205 (tau; [2]): significantly increased
hyperphosphorylation of tau at Ser199 (tau; [3]): significantly increased
hyperphosphorylation of tau at Thr212 (tau; [3]): significantly increased
expression of tau phosphorylated at Ser262/356 (tau; immunohistofluorescent analysis, 12E8 staining, BMAA-treated primary neurons): increased
